Patent US12552815B2, “Boronic acid derivatives and synthesis, polymorphic forms, and therapeutic uses thereof” (QPEX BIOPHARMA, INC., priority 2020, dated 2026)

Test: Dynamic vapor sorption (DVS) analysis
Type: physicochemical
Conditions: for hygroscopicity / water uptake by dynamic vapor sorption (DVS): 25° C., 10% RH steps from 5 to 95% RH and from 95 to 5% RH
Method: DVS analysis was carried out using a TA Instruments Q5000 Dynamic Vapor Sorption analyzer. The instrument was calibrated with standard weights and a sodium bromide standard for humidity. Approximately 20 mg of sample was loaded into a metal-coated quartz pan for analysis. The sample was analyzed at 25° C. with a maximum equilibration time of one hour in 10% relative humidity (RH) steps from 5 to 95% RH (adsorption cycle) and from 95 to 5% RH (desorption cycle). The movement from one step to the next occurred either after satisfying the equilibrium criterion of 0.01% weight change or, if the equilibrium criterion was not met, after one hour. The percent weight change values were calculated using Microsoft Excel®. The temperature for the DVS analysis can impact the outcome of the results.
Differential Scanning Calorimetry (5° C./min), Thermogravimetric analysis (5° C./min), and Dynamic Vapor Sorption (stepwise RH decrease from 45% to 0% at 50° C.) data for highly crystalline Form A of Compound I′ prepared analogously to the crystallization method above is shown in FIGS. 27-29, respectively.

| SMILES | hygroscopicity / water uptake by dynamic vapor sorption (DVS) | gain/loss of water by dynamic vapor sorption (DVS), highly crystalline sample (relative humidity range of 5% to 75%, FIG. 29, stepwise RH decrease from 45% to 0% at 50° C.) |
| --- | --- | --- |
| CCOC(=O)c1c(F)ccc2c1O[B-]1(O[C@@H](c3ccccc3)[C@H](C)[NH+]1C)[C@@H]1C[C@H]21 (stereo partly shown) [Compound A-4] | not hygroscopic |  |
| CCOC(=O)c1c(F)ccc2c1O[B-]1(C=C2)O[C@@H](c2ccccc2)[C@H](C)[NH+]1C (stereo partly shown) [Compound A-3, pseudoephedrine complex of ethyl 7-fluoro-2-hydroxy-2H-benzo[e][1,2]oxaborinine-8-carboxylate] | not hygroscopic |  |
| O=C([O-])c1c(F)ccc2c1O[B-](O)(O)[C@@H]1C[C@H]21.[Na+].[Na+] [Form A of Compound I′] | hygroscopic | resists gain/loss of water |
